From PubChem BioAssay (NCI)
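Method: 48-hour compound exposure of cells in 96-well plates, five concentrations, linear interpolation of endpoints. The concentration for 50% growth inhibition is given as GI50. TGI marks complete inhibition of growth.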

Assays:
Assay in all cases: NCI anticancer screen, dose series, 48 h
[1] = test system: MDA-MB-231 breast
[2] = test system: SK-MEL-2 melanoma
[3] = test system: DU-145 prostate
[4] = test system: NCI-H226 lung
[5] = test system: MALME-3M melanoma
[6] = test system: RXF 393 renal
[7] = test system: A549 NSCLC
[8] = test system: HCC-2998 colon
[9] = test system: SW-620 colon
[10] = test system: HL-60(TB) leukemia

Row | SMILES | GI50 [1] | TGI [1] | GI50 [2] | TGI [2] | GI50 [3] | TGI [3] | GI50 [4] | TGI [4] | GI50 [5] | TGI [5] | GI50 [6] | TGI [6] | GI50 [7] | TGI [7] | GI50 [8] | TGI [8] | GI50 [9] | TGI [9] | GI50 [10] | TGI [10]
1 | Cc1cc(C)c(C(=O)CC(=O)c2cccnc2)c(C)c1 | 11.2 µM | > 100 µM | 17.3 µM | > 100 µM | 12.2 µM | > 100 µM | 7.34 µM | 86.8 µM | 14.1 µM | > 100 µM | 10.7 µM | 60.2 µM | 6.97 µM | > 100 µM | 12.8 µM | > 100 µM | 4.72 µM | > 100 µM | 8.59 µM | 31.7 µM
2 | Cc1ccc(C(=NN=C(N)N)c2ccc(C)cc2)cc1 | 0.926 µM | 4.36 µM | 0.78 µM | 2.94 µM | 0.313 µM | 1.16 µM | 1.69 µM | 10.9 µM | 0.388 µM | 1.91 µM | 0.509 µM | 1.73 µM | 0.451 µM | 7.09 µM | 0.683 µM | 1.93 µM | 0.379 µM | 1.66 µM | 0.214 µM | 0.685 µM
3 | CC(C)c1ccc(C(=O)Nc2sc3c(c2C(N)=O)CCC(=O)C3)cc1 | 0.788 µM | 2.43 µM | 2.16 µM | 5.25 µM | 3.16 µM | 14.3 µM | 2.42 µM | 7.23 µM | 1.65 µM | 4.79 µM | 0.354 µM | 1.49 µM | 1.96 µM | 13.2 µM | 1.85 µM | 4.23 µM | 0.256 µM | 1.6 µM | 0.615 µM | 4.82 µM
4 | CCC#CC[C@H]1C/C=C2/C(=O)C=C[C@@H]2C/C=C\CCCC(=O)O1 | 1.85 µM | 9.28 µM | 1.17 µM | 3.52 µM | 1.37 µM | 6.24 µM | 1.27 µM | 5.26 µM | 1.13 µM | 3.24 µM | 0.945 µM | 1.96 µM | 1.24 µM | 4.03 µM | 0.991 µM | 1.8 µM | 0.642 µM | 4.15 µM | 1.07 µM | 4.23 µM
5 | COC(=O)Nc1nc2ccc(Oc3ccc(NC(=O)Nc4ccccc4)cc3)cc2[nH]1 | 0.32 µM | 10.3 µM | 0.109 µM | 2.19 µM | 0.254 µM | 3.1 µM | 0.18 µM | 5.21 µM | 0.14 µM | > 11.4 µM | 0.069 µM | 0.533 µM | 0.533 µM | 5.32 µM | 0.458 µM | > 17.7 µM | 0.101 µM | > 10.2 µM | 0.0654 µM | 0.295 µM
6 | O=C(N/N=C/c1cccc(O)c1O)c1ccccc1 | 0.495 µM | > 100 µM | 11.7 µM | > 100 µM | 1.15 µM | > 100 µM | 3.22 µM | > 30.2 µM | 1.35 µM | 35.8 µM | 1.98 µM | > 100 µM | 2.01 µM | > 100 µM | 3.2 µM | > 100 µM | 0.635 µM | > 100 µM | 0.301 µM | 1.94 µM
7 | CCOC(=O)Sc1ncnc2nc[nH]c12 | 3.88 µM | > 100 µM | 6.15 µM | > 100 µM | 0.586 µM | > 100 µM | 4.46 µM | > 100 µM | 27.1 µM | > 100 µM | 15.1 µM | > 100 µM | 25.9 µM | > 100 µM | 3.13 µM | > 100 µM | 3.89 µM | > 100 µM | 1.42 µM | 6.7 µM
8 | COc1ccc(C(=O)COc2cccc(/C=C3\COc4ccc5ccccc5c4C3=O)c2)cc1 | 6.97 µM | > 100 µM | 5.83 µM | > 100 µM | 4.25 µM | > 100 µM | 15.4 µM | > 100 µM | 10.2 µM | > 100 µM | 9.8 µM | > 100 µM | > 100 µM | > 100 µM | 23.5 µM | > 100 µM | 3.33 µM | 13.7 µM | 2.07 µM | 6.83 µM
9 | CCc1[nH]c(=O)nc(N)c1-c1ccc(N2CCCCC2)c([N+](=O)[O-])c1 | – | > 100 µM | – | > 100 µM | – | > 100 µM | – | > 100 µM | – | – | – | > 100 µM | – | > 100 µM | – | > 100 µM | – | > 100 µM | – | > 100 µM
10 | NC(=S)N/N=C/c1ccc(OC(=O)COc2ccc(Cl)cc2)cn1 | 6.61 µM | > 100 µM | 9.69 µM | > 100 µM | 2.46 µM | 8.65 µM | 13.4 µM | 48.9 µM | 12.2 µM | > 100 µM | 5.48 µM | > 100 µM | 34.5 µM | > 100 µM | 8.46 µM | > 100 µM | 3.29 µM | > 100 µM | 0.954 µM | 20.8 µM
11 | COc1cc(C2=NN(C(C)=O)C(c3ccc(OC(C)=O)cc3OC(C)=O)O2)c(OC(C)=O)c2ccccc12 (centres undefined) | 0.543 µM | > 56.4 µM | 10.8 µM | 49.4 µM | 0.683 µM | > 100 µM | 1.15 µM | 14.4 µM | 1.83 µM | 20.5 µM | 1 µM | 12.5 µM | 1.57 µM | 28.4 µM | 1.03 µM | 27.9 µM | 0.608 µM | 27.5 µM | 0.671 µM | 2.94 µM
12 | COc1ccc(C(C)c2cc3c(cc2OC)OCO3)cc1 (centres undefined) | – | 4.6 µM | – | 2.49 µM | – | > 21.9 µM | – | 20.6 µM | – | 52.2 µM | – | > 100 µM | – | > 100 µM | – | 3.62 µM | – | > 100 µM | – | 2.87 µM
